According to ChEMBL document CHEMBL1133145, “Novel photoreactive cinnamic acid analogues to elucidate phenylalanine ammonia-lyase” (Bioorg Med Chem Lett, 2000):

Assay: Inhibitory activity against Phenylalanine Ammonia-lyase (PAL)

Work on `O=C(O)/C=C/c1ccc(C2(C(F)(F)F)N=N2)cc1OCCOCCOCCNC(=O)CCCC[C@@H]1SCC2NC(=O)NC21` (some centres not stated) yielded a Ki of 520 µM.

Molecule `COc1cc(C2(C(F)(F)F)N=N2)ccc1/C=C/C(=O)O` has a Ki of 240 µM.
